{"source": "patent US20240307361A1", "about": "“METHOD FOR DIAGNOSING AND TREATING IRRITABLE BOWEL SYNDROME” (Centre for Chinese Herbal Medicine Drug Development Limited, priority 2023, published 2024)", "key": {"TAAR1 [1]": {"target": "T1, TAAR1 (Mus musculus, UniProt Q923Y8)", "T1 construct": "is expressed in EC cells in the GI tract; from tissue; host or cells: living mice (conventional, antibiotic-treated, or wild-type littermates of Taar1 KO, C57Bl/6J)", "T1 sequence (Q923Y8 whole entry)": "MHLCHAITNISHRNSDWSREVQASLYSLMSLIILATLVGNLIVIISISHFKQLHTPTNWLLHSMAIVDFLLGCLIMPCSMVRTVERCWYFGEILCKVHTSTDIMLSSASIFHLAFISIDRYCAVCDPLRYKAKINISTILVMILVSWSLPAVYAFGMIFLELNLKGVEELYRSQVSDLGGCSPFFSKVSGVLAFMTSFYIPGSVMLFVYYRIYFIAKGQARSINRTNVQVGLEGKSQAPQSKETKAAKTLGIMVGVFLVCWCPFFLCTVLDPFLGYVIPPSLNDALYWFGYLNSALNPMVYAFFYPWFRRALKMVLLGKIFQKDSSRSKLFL", "experiment": "TAAR1 antagonist EPPTB in phenethylamine-treated mice", "format": "in vivo", "conditions": "EPPTB 10 mg/kg, phenethylamine 10 mg/kg, p<0.05", "procedure": "To study phenethylamine and tryptamine effects on 5-HT production, phenethylamine and tryptamine at a dosage of 2 mg/kg, 5 mg/kg and 10 mg/kg (dissolved in 0.5% CMC-Na, sodium carboxymethyl cellulose) were administered to mice by oral gavage. Mice treated with/without phenethylamine and tryptamine were sacrificed under isoflurane anesthesia. Biological samples including serum, duodenum, ileum, proximal colon and distal colon tissues and luminal contents in each intestinal segments were collected at indicated dosages and times and stored at −80° C. until analysis.\n(§1) For the fecal pellet water content test, 1.5 mL Eppendorf tubes were pre-weighed and used to collect fecal pellets from mice immediately after defecation. The tubes were then closed to measure wet weight. Afterward, the tubes were opened and placed in an oven at 60° C. overnight to measure the dry weight. Fecal pellet water content was measured by subtracting the dry weight from the wet weight and normalizing it to the wet pellet mass. Fecal pellets from mice were also counted within 2 h of the defecation frequency test.\n(§2) Carmine red assay: Mice were administered 300 μL of 6% carmine red solution (prepared by 0.5% methylcellulose) by oral gavage to measure the GI transit time after treatment with phenethylamine at the indicated dosages. The mice were placed on white sheet paper to track the red pellet in their cages after oral gavage. The total time taken for the appearance of the first red pellet after oral gavage was recorded as gut transit time.\nColonic tissues were lysed in RIPA buffer containing protease inhibitor cocktails in a tissuelyzer. The tissue lysates were centrifuged at 15,000 rpm for 15 min at 4° C. and quantified by BCA kit for protein concentration. The protein content normalized supernatant was mixed with 5× loading buffer and heated at 98° C. in a dry bath for 10 min. The samples were evaluated according to the western blotting protocol (Abcam). The blots were incubated with HRP-conjugated anti-rabbit IgG or anti-mouse IgG and reacted with enhanced chemiluminescence."}, "TAAR1 [2]": {"target": "T1, TAAR1", "experiment": "EPPTB on phenethylamine-induced 5-HT elevation in mice intestine tissues cultured ex vivo", "format": "cell-based", "conditions": "EPPTB 50 μM, p<0.05, FIG. 5I", "procedure": "Mouse and human colonic tissues were collected as previously described. To investigate the effects of phenethylamine on 5-HT levels in mouse and human colon tissues, the colonic tissues were cut into small pieces (0.5 cm) and placed in a 12-well cell culture plate. Colon pieces were added to DMEM/F12 medium containing 5% fetal bovine serum, penicillin-streptomycin (1×), and gentamycin (20 μg/ml), followed by treatment with phenethylamine and EPPTB, as indicated. Colon pieces were incubated at 37° C. with 5% CO2 and 95% air. A 200 μL volume of medium was collected from each well at the indicated time points for the analysis of 5-HT."}, "TAAR1 [3]": {"target": "T1, TAAR1", "experiment": "EPPTB in antibiotic-treated mice colonized with R. gnavus (ATCC 29149)", "format": "in vivo", "conditions": "EPPTB 10 mg/kg, p<0.05", "procedure": "A broad-spectrum antibiotic mixture (ABX) containing vancomycin (100 mg/kg), neomycin (200 mg/kg), metronidazole (200 mg/kg), and ampicillin (200 mg/kg) was used to establish an antibiotic-treated mouse model. Briefly, the antibiotic mixture was administered to mice by oral gavage for 10 consecutive days prior to fecal microbial transplantation (FMT) or the colonization study.\nR. gnavus (strain ATCC 29149) was first grown on tryptic soy broth (TSB) agar plates and cultured in TSB broth using a single colony. R. gnavus (strain ATCC 29149) was collected from the medium by centrifuging at 3,500 rpm for 10 min at room temperature. These bacterial strains were then reconstituted in 200 μL of sterilized phosphate-buffered saline and administered to antibiotic-treated mice by oral gavage. Fecal samples were collected daily to measure fecal phenethylamine levels in antibiotic-treated mice before and after oral administration of bacterial strains.\nas §1, §2"}, "TAAR1 [4]": {"target": "T1, TAAR1", "experiment": "EPPTB in antibiotic-treated mice transplanted with IBS-D fecal microbiota (FMT)", "format": "in vivo", "conditions": "EPPTB 10 mg/kg, p<0.05", "procedure": "A broad-spectrum antibiotic mixture (ABX) containing vancomycin (100 mg/kg), neomycin (200 mg/kg), metronidazole (200 mg/kg), and ampicillin (200 mg/kg) was used to establish an antibiotic-treated mouse model. Briefly, the antibiotic mixture was administered to mice by oral gavage for 10 consecutive days prior to fecal microbial transplantation (FMT) or the colonization study. For the fecal pellet water content test, 1.5 mL Eppendorf tubes were pre-weighed and used to collect fecal pellets from mice immediately after defecation. The tubes were then closed to measure wet weight. Afterward, the tubes were opened and placed in an oven at 60° C. overnight to measure the dry weight. Fecal pellet water content was measured by subtracting the dry weight from the wet weight and normalizing it to the wet pellet mass. Fecal pellets from mice were also counted within 2 h of the defecation frequency test. Carmine red assay: […] The mice were placed on white sheet paper to track the red pellet in their cages after oral gavage. The total time taken for the appearance of the first red pellet after oral gavage was recorded as gut transit time. Fecal samples from IBS-D patients and HC participants (n=8/group) were prepared as suspensions in PBS at a concentration of (100 mg/mL). […] After the FMT, GI transit, stool consistency, and defecation frequency were measured. […]"}}}
{"smiles": "CCOc1cccc(NC(=O)c2ccc(N3CCCC3)c(C(F)(F)F)c2)c1", "note": "[EPPTB, N-(3-ethoxy-phenyl)-4-pyrrolidin-1-yl-3-trifluoromethyl-benzamide]", "values": [{"measurement": "phenethylamine-induced 5-HT production", "setting": "TAAR1 [1]; mice", "value": "suppressed"}, {"measurement": "phenethylamine-induced 5-HTP/Trp and 5-HT/5-HTP ratios", "setting": "TAAR1 [1]; mice", "value": "inhibited by EPPTB treatment"}, {"measurement": "phenethylamine-induced GI transit acceleration", "setting": "TAAR1 [1]; mice", "value": "suppressed"}, {"measurement": "phenethylamine-induced colonic secretion increase", "setting": "TAAR1 [1]; mice", "value": "suppressed"}, {"measurement": "phenethylamine-induced increased levels of serum 5-HTP", "setting": "TAAR1 [1]; mice", "value": "inhibited by EPPTB treatment"}, {"measurement": "phenethylamine-induced activation of PKA and CaMKII", "setting": "TAAR1 [1]; proximal colonic tissues of mice", "value": "inhibited"}, {"measurement": "phenethylamine-induced 5-HT elevation in mice intestine tissues cultured ex vivo", "setting": "TAAR1 [2]", "value": "suppressed"}, {"measurement": "R. gnavus-induced 5-HT elevation in serum", "setting": "TAAR1 [3]", "value": "suppressed by EPPTB treatment"}, {"measurement": "R. gnavus-induced accelerated GI transit", "setting": "TAAR1 [3]", "value": "suppressed by EPPTB treatment"}, {"measurement": "R. gnavus-induced increased fecal water content", "setting": "TAAR1 [3]", "value": "suppressed by EPPTB treatment"}, {"measurement": "pathological changes induced by transplantation of IBS-D fecal microbiota (colonic 5-HT, GI transit, defecation frequency)", "setting": "TAAR1 [4]", "value": "largely suppressed"}]}
